In this test the target is T1, isocitrate lyase (ICL) (Brucella abortus, UniProt Q2YQA0).
T1 construct: gene BAB1_1631
Conditions: covalent; adduct with Cys185; active site.

The text below walks through data of publication PMC8443048 (PLoS Pathogens, 2021).

T1 sequence (Q2YQA0 1-429): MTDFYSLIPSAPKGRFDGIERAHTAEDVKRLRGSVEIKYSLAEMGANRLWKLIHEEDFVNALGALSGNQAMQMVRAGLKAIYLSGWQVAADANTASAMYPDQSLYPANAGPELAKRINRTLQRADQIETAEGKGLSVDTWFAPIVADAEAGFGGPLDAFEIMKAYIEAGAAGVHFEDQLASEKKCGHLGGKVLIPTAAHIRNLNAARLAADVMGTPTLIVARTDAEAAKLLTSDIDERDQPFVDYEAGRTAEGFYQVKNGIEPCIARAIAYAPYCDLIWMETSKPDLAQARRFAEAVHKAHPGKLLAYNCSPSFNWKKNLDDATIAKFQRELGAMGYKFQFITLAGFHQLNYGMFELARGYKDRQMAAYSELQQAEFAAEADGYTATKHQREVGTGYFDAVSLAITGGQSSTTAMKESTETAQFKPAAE

Consider `C=C(CC(=O)O)C(=O)O` [itaconate], for which the “X-ray crystallography of the complex, 1.8 Å” value is “unambiguously shows a covalent adduct between itaconate and Cys185 in B. abortus isocitrate lyase”.
